In patent publication US6710168B1, “Glycopeptide antibiotics, combinatorial libraries of glycopeptide antibiotics and methods of producing same” (The Trustees of the University of Princeton, priority 1999, dated 2004):
In brackets after ≈: the same amount, converted by molar mass.

Legend:
Assay type in all cases: cell-based
[1] = tested on: Bacillus cereus (ATCC 11778); assay: MIC susceptibility test, microdilution with MTT readout; conditions: Bacillus cereus, ATCC11778, read-out: MIC BC
Description: (§1) Evaluation of vancomycin analogs is performed using in vitro susceptibility tests and a time-kill assay. [NCCL Standard, 1993] In susceptibility tests, five strains of bacteria, two of the most important: Staphylococcus aureus and Enterococcus faecalis (both susceptible and resistant strains), and Bacillus cereus are chosen and bacteria viability remaining in each well is evaluated using a colorimetric assay based on the tetrazolium salt 3-(4,5-dimethyl-2-thiazolyl)-2,5-diphenyl-2H tetrazolium bromide (MTT) and minimum inhibitory concentration (MIC) values are determined as μg/mL. [Mosmann, T. (1983); Damour, O., et al. (1992); Mikami, Y., et al. (1994)] This assay gives susceptibility information quickly, efficiently, and clearly.
(§2) All strains [Bacillus cereus (ATCC® 11778), Staphylococcus aureus (ATCC® 29213), Methicillin resistant Staphylococcus aureus (ATCC® 33591), Enterococcus faecalis (ATCC® 29212), and gentamicin, streptmycin, vancomycin resistant Enterococcus faecalis (ATCC® 51299), are purchased from REMEL (Lenexa, Kans.).
(§3) MICs are determined by the microdilution method using 96-well microplates. Samples are suspended with Cation Adjusted (20 to 25 mg of Ca^2+/mL and 10 to […] of Mg^2+) Mueller-Hinton broth (Difco Laboratories, Detroit, Mich.) and are two-fold diluted from 5 μg/mL to […] on microplates (12 step dilution). To each well, which contained 100 μL of cell suspension (10^6 CFU/mL), 100 μL of antibiotic solution is added and the plates are incubated at 37° C. for 24 h. 50 μL of MTT solution (1 mg/mL) is added to each well, then the plates are incubated under the same conditions (incubation time; 30 min for Bacillus cereus, Staphylococcus aureus, and Methicillin resistant Staphylococcus aureus; 2 hours for Enterococcus faecalis and Gentamicin, Streptmycin, Vancomycin Enterococcus faecalis). MTT is a yellow tetrazolium salt that is reduced by mitochondrial enzymes in viable cells to an insoluble blue formazan product. MIC values are evaluated by observing the lowest drug concentration to inhibit bacteria growth.

[2] = tested on: Enterococcus faecalis (ATCC 29212); assay: as above; conditions: Enterococcus faecalis ATCC29212; read-out: MIC EF
Description: as §1, §2, §3

[3] = tested on: Methicillin resistant Staphylococcus aureus (ATCC 33591); assay: as above; conditions: ATCC 3359 / ATCC 33591 / MRSA; Staphylococcus aureus ATCC3359, Methicillin resistance; read-out: MIC MRSA
Description: as §1, §2, §3

[4] = tested on: Staphylococcus aureus (ATCC 29213); assay: as above; conditions: Staphylococcus aureus ATCC29213; read-out: MIC SA
Description: as §1, §2, §3

[5] = tested on: gentamicin, streptmycin, vancomycin resistant Enterococcus faecalis (ATCC 51299); assay: microbe, parasite or virus in culture; conditions: Enterococcus faecalis, ATCC51299, read-out: MIC VREF
Description: as §1, §2, §3

[6] = tested on: Enterococcus faecium CL5137, VanA; assay: MIC susceptibility test; conditions: Enterococcus faecium CL5137, VanA; read-out: MIC CL5137
[7] = tested on: Enterococcus faecalis CL5244, VanB; assay: MIC susceptibility test; conditions: Enterococcus faecalis CL5244, VanB; read-out: MIC CL5244
Description: as §1, §3

Molecule `CN[C@@H](CC(C)C)C(=O)N[C@H]1C(=O)N[C@@H](CC(N)=O)C(=O)N[C@H]2C(=O)NC3C(=O)N[C@H](C(=O)N[C@@H](C(=O)O)c4cc(O)cc(O)c4-c4cc3ccc4O)[C@H](O)c3ccc(c(Cl)c3)Oc3cc2cc(c3OC2OC(CN=[N+]=[N-])C(O)C(O)C2OC2CC(C)(NCc3ccc(-c4ccc(Cl)cc4)cc3)C(O)C(C)O2)Oc2ccc(cc2Cl)[C@H]1O` (stereo partly drawn) [LXXIV, N-4-(4-Chlorophenyl)benzylvancosamine-glucose-C6-azide Vancomycin] has an MIC [1] of 0.32 µg/mL (≈ 0.191 µM), an MIC [2] of 0.16 µg/mL (≈ 0.0955 µM) and an MIC [3] of 0.48 µg/mL (≈ 0.287 µM). It also gave an MIC [4] of 1 µg/mL (≈ 0.597 µM), an MIC [5] of 0.16 µg/mL (≈ 0.0955 µM) and an MIC [6] of 13 µg/mL (≈ 7.76 µM). It also gave an MIC [7] of 0.3 µg/mL (≈ 0.179 µM).

`CCCCCCCCCCNC1(C)CC(OC2C(Oc3c4cc5cc3Oc3ccc(cc3Cl)[C@@H](O)[C@@H](NC(=O)[C@H](CC(C)C)NC)C(=O)N[C@@H](CC(N)=O)C(=O)N[C@H]5C(=O)NC3C(=O)N[C@H](C(=O)N[C@@H](C(=O)O)c5cc(O)cc(O)c5-c5cc3ccc5O)[C@H](O)c3ccc(c(Cl)c3)O4)OC(CSc3nnc(C)c(O)n3)C(O)C2O)OC(C)C1O` (stereo partly drawn) [LXXIX, N-Decylvancosamine-glucose-C6-2-thio-6-azathymine Vancomycin] showed an MIC [1] of 0.63 µg/mL (≈ 0.367 µM), an MIC [2] of 0.32 µg/mL (≈ 0.187 µM) and an MIC [3] of 1.3 µg/mL (≈ 0.758 µM). The MIC [4] was 2.5 µg/mL (≈ 1.46 µM), the MIC [5] was 0.63 µg/mL (≈ 0.367 µM) and the MIC [6] was 25 µg/mL (≈ 14.6 µM). The MIC [7] was 0.6 µg/mL (≈ 0.35 µM).

Molecule `CN[C@@H](CC(C)C)C(=O)N[C@H]1C(=O)N[C@@H](CC(N)=O)C(=O)N[C@H]2C(=O)NC3C(=O)N[C@H](C(=O)N[C@@H](C(=O)O)c4cc(O)cc(O)c4-c4cc3ccc4O)[C@H](O)c3ccc(c(Cl)c3)Oc3cc2cc(c3OC2OC(CN)C(O)C(O)C2OC2CC(C)(NCc3ccc(-c4ccc(Cl)cc4)cc3)C(O)C(C)O2)Oc2ccc(cc2Cl)[C@H]1O` (stereo partly drawn) [LXXV, N-4-(4-Chlorophenyl)benzylvancosamine-glucose-C6-amine Vancomycin] has an MIC [1] of 0.16 µg/mL (≈ 0.097 µM), an MIC [2] of at most 0.03 µg/mL and an MIC [3] of at most 0.03 µg/mL. For the same molecule, the MIC [4] was at most 0.03 µg/mL, the MIC [5] was 0.63 µg/mL (≈ 0.382 µM) and the MIC [6] was 2 µg/mL (≈ 1.21 µM). It also gave an MIC [7] of at most 0.03 µg/mL.

`CN[C@@H](CC(C)C)C(=O)N[C@H]1C(=O)N[C@@H](CC(N)=O)C(=O)N[C@H]2C(=O)NC3C(=O)N[C@H](C(=O)N[C@@H](C(=O)O)c4cc(O)cc(O)c4-c4cc3ccc4O)[C@H](O)c3ccc(c(Cl)c3)Oc3cc2cc(c3OC2OC(CSc3nnc(N)s3)C(O)C(O)C2OC2CC(C)(N)C(O)C(C)O2)Oc2ccc(cc2Cl)[C@H]1O` (stereo partly drawn) [LXXVI, Glucose-C6-2-thio-5-amino-1,3,4-thiadiazole Vancomycin] showed an MIC [1] of 0.63 µg/mL (≈ 0.403 µM), an MIC [2] of 1.3 µg/mL (≈ 0.831 µM) and an MIC [3] of 0.63 µg/mL (≈ 0.403 µM). It also gave an MIC [4] of 0.63 µg/mL (≈ 0.403 µM), an MIC [5] of over 5 µg/mL and an MIC [6] of over 50 µg/mL. The MIC [7] was 19 µg/mL (≈ 12.1 µM).

Work on `CN[C@@H](CC(C)C)C(=O)N[C@H]1C(=O)N[C@@H](CC(N)=O)C(=O)N[C@H]2C(=O)NC3C(=O)N[C@H](C(=O)N[C@@H](C(=O)O)c4cc(O)cc(O)c4-c4cc3ccc4O)[C@H](O)c3ccc(c(Cl)c3)Oc3cc2cc(c3OC2OC(CSc3nnc(NN)n3N)C(O)C(O)C2OC2CC(C)(N)C(O)C(C)O2)Oc2ccc(cc2Cl)[C@H]1O` (stereo partly drawn) [LXXVII, Glucose-C6-5-thio-4-amino-3-hydrazino-1,2,4-triazole Vancomycin] yielded an MIC [1] of 0.63 µg/mL (≈ 0.399 µM), an MIC [2] of 0.63 µg/mL (≈ 0.399 µM) and an MIC [3] of 1.3 µg/mL (≈ 0.824 µM). The MIC [4] was 1.3 µg/mL (≈ 0.824 µM), the MIC [5] was 1.3 µg/mL (≈ 0.824 µM) and the MIC [6] was 63 µg/mL (≈ 39.9 µM). For the same molecule, the MIC [7] was 3.2 µg/mL (≈ 2.03 µM).

For `CN[C@@H](CC(C)C)C(=O)N[C@H]1C(=O)N[C@@H](CC(N)=O)C(=O)N[C@H]2C(=O)NC3C(=O)N[C@H](C(=O)N[C@@H](C(=O)O)c4cc(O)cc(O)c4-c4cc3ccc4O)[C@H](O)c3ccc(c(Cl)c3)Oc3cc2cc(c3OC2OC(CSc3nc(C)cc(O)n3)C(O)C(O)C2OC2CC(C)(N)C(O)C(C)O2)Oc2ccc(cc2Cl)[C@H]1O` (stereo partly drawn) [LXXVIII, Glucose-C6-2-thio-4-hydroxy-6-methylpyrimidine Vancomycin], the MIC [1] was 0.63 µg/mL (≈ 0.4 µM), the MIC [2] was 0.63 µg/mL (≈ 0.4 µM) and the MIC [3] was 1.3 µg/mL (≈ 0.826 µM). For the same molecule, the MIC [4] was 1 µg/mL (≈ 0.636 µM), the MIC [5] was 2.5 µg/mL (≈ 1.59 µM) and the MIC [6] was over 50 µg/mL. The MIC [7] was 6.3 µg/mL (≈ 4 µM).
